Assay: xn = mol fraction of the nth substance listed

CCC[N+]1(C)CCCC1.O=S(=O)([N-]S(=O)(=O)C(F)(F)F)C(F)(F)F + CS(C)=O
electrical conductivity [S/m], 101 kPa, frequency 0.0005 MHz
Details	278.15 K	288.15 K	298.15 K	308.15 K	318.15 K	328.15 K	338.15 K	348.15 K	358.15 K
x1 = 0.05995	–	0.967	1.18	1.4	1.62	1.85	2.08	2.31	2.54
x1 = 0.1606	0.953	1.21	1.5	1.79	2.01	2.39	2.76	3.05	3.39
x1 = 0.3647	0.66	0.879	1.09	1.37	1.65	1.9	2.12	2.41	2.75

viscosity [mPa·s], 101 kPa
Details	278.15 K	288.15 K	298.15 K	308.15 K	318.15 K	328.15 K	338.15 K	348.15 K	358.15 K
x1 = 0.05995	–	3.56	2.86	2.367	1.965	1.682	1.446	1.27	1.126
x1 = 0.1606	7.89	5.88	4.56	3.66	2.99	2.51	2.138	1.847	1.623
x1 = 0.3647	20.1	13.94	10.18	7.75	6.1	4.93	4.08	3.44	2.95
x1 = 1	163.6	96.2	60.6	40.8	28.9	21.3	16.29	12.82	10.34

NCC(=O)NCC(=O)O + CCCCCCCCCCCC[N+](C)(C)Cc1ccccc1.[Cl-] + O
101 kPa, x1 = 0.0008948, x2 = 0
Details	electrical conductivity [S/m]
293.15 K	0.00137
298.15 K	0.00165
303.15 K	0.00198
308.15 K	0.00239
313.15 K	0.00284

CCCC[n+]1ccn(C)c1.O=C([O-])C(F)(F)F + CC(=O)[O-].CCCC[n+]1ccn(C)c1
viscosity [mPa·s], 101 kPa
Details	293.15 K	298.15 K	303.15 K	313.15 K	323.15 K	333.15 K	343.15 K	353.15 K
x2 = 0	–	–	58	37.8	26.1	18.89	14.47	11.25
x2 = 0.2508	137.7	103	78.8	49.7	33	23.2	17.33	13.18
x2 = 0.4999	210	152.5	113.3	66.8	42.9	29.1	20.74	15.68
x2 = 0.7487	343	238	171.1	94.9	57.4	37.6	25.9	18.86

CCCC[n+]1ccn(C)c1.F[B-](F)(F)F + CN(C)C=O
Details	viscosity [mPa·s]
293.15 K, 101 kPa, x1 = 0.08	3.1
298.15 K, 101 kPa, x1 = 0.74	42.5
298.15 K, 101 kPa, x1 = 0.83	62.4
298.15 K, 101 kPa, x1 = 0.94	88
298.15 K, 101.33 kPa, x2 = 0.1024	78
303.15 K, 100 kPa, x1 = 0.1008	1.497
303.15 K, 101 kPa, x1 = 0.94	74
308.15 K, 101 kPa, x1 = 0.43	5.71
313.15 K, 100 kPa, x1 = 0.8015	25.47
313.15 K, 100 kPa, x1 = 1	53.84
313.15 K, 101 kPa, x1 = 0.16	2.45
313.15 K, 101 kPa, x1 = 0.74	18.5
318.15 K, 101 kPa, x1 = 0.08	1.42
318.15 K, 101 kPa, x1 = 0.55	1.67
318.15 K, 101 kPa, x1 = 0.74	12
323.15 K, 100 kPa, x1 = 0.3022	2.993
323.15 K, 100 kPa, x1 = 0.7019	14.07
323.15 K, 101 kPa, x1 = 0.08	1.19
323.15 K, 101 kPa, x1 = 0.74	6.8
323.15 K, 101 kPa, x1 = 0.94	26.6
333.15 K, 100 kPa, x1 = 0.7019	10.75

CC[P+](CC)(CC)COCCOC.c1c[n-]nn1 + CCCCCC[n+]1ccn(C)c1.O=S(=O)([N-]S(=O)(=O)C(F)(F)F)C(F)(F)F
100 kPa
Details	viscosity [mPa·s]
278.15 K, x2 = 0.75	235
288.15 K, x2 = 0.25	136
293.15 K, x2 = 0.25	103
298.15 K, x2 = 0.75	76
303.15 K, x2 = 0.5	60

CCCC[n+]1ccn(C)c1.F[B-](F)(F)F + OCCOCCOCCOCCO
Details	viscosity [mPa·s]
298.15 K, 101 kPa, x2 = 0	94.4

CC1COC(=O)O1 (configuration not stated) + CCCC[n+]1ccccc1.N#C[N-]C#N
101 kPa, x2 = 0
Details	viscosity [mPa·s]
318.15 K	1.724
333.15 K	1.366

CCC[N+]1(C)CCCC1.O=S(=O)([N-]S(=O)(=O)C(F)(F)F)C(F)(F)F + CC#N
electrical conductivity [S/m], 101 kPa, frequency 0.0005 MHz
Details	278.15 K	288.15 K	298.15 K	308.15 K	318.15 K	328.15 K
x1 = 0.03242	2.26	2.44	2.63	2.78	2.91	3.13
x1 = 0.09134	2.76	3.03	3.31	3.54	3.77	3.92
x1 = 0.2317	2.01	2.35	2.69	2.97	3.28	3.53

viscosity [mPa·s], 101 kPa
Details	278.15 K	288.15 K	298.15 K	308.15 K	318.15 K	328.15 K	338.15 K	348.15 K	358.15 K
x1 = 0.03242	0.649	0.581	0.516	0.46	0.405	–	–	–	–
x1 = 0.09134	1.145	0.993	0.877	0.797	0.706	0.621	–	–	–
x1 = 0.2317	3.57	2.91	2.44	2.079	1.798	1.592	–	–	–
x1 = 1	163.6	96.2	60.6	40.8	28.9	21.3	16.29	12.82	10.34

CCCC[n+]1ccn(C)c1.F[B-](F)(F)F + OCC(F)(F)F
101 kPa, x2 = 0
Details	viscosity [mPa·s]
278.15 K	360
283.15 K	255
288.15 K	186
293.15 K	139
298.15 K	106
303.15 K	82.2
308.15 K	65
313.15 K	52.2
318.15 K	42.6
323.15 K	35.2
328.15 K	29.5
333.15 K	25

CN(CCO)CCO + CC(=O)[O-].CC[n+]1ccn(C)c1
101 kPa, x2 = 0
Details	electrical conductivity [S/m]	viscosity [mPa·s]
288.15 K	0.000224	–
293.15 K	0.00029	–
298.15 K	0.000397	–
303.15 K	0.000528	–
308.15 K	0.000675	–
313.15 K	0.000896	–
318.15 K	0.00113	–
323.15 K	0.00144	–
328.15 K	0.00187	16.9
333.15 K	0.00236	–
338.15 K	0.00295	11.56
343.15 K	0.00365	9.79
348.15 K	0.00455	–
353.15 K	0.00556	–

CC[n+]1ccn(C)c1.N#C[N-]C#N + CCCC[N+](C)(CCCC)CCCC.N#C[N-]C#N
101 kPa, x1 = 1
Details	viscosity [mPa·s]
303.15 K	12.97
323.15 K	8.28
343.15 K	5.49
353.15 K	4.63

Source: the CheMixHub ionic liquid set
